Measured values taken from patent US9889135B2, “Companion diagnostic for CDK4 inhibitors” (Memorial Sloan-Kettering Cancer Center, priority 2013, dated 2018).

What was measured:
WD/DDLS cell lines = assay: annexin V staining (apoptosis); format: cell-based, human; settings: PD0332991, 48 hours, any of the seven cell lines
Procedure: FIG. 1A-C. […] Mean percentage of BrdU incorporation or annexin V+/7-AAD− cells was calculated from three or more independent experiments. Error bars represent standard deviation (*p<0.05).
FIG. 13A-B. Nutlin-3a induces apoptosis in all the liposarcoma cell lines. The indicated cell lines were treated with nutlin-3a or vehicle control and extracts were prepared for immunoblotting (A) or annexin V staining (B) forty-eight hours after treatment. Mean percentage of annexin V+/7-AAD− cells was calculated from three or more independent experiments. Error bars represent standard deviation (*p<0.05).
Cells were stained with BrdU (20 μM for two hours) or annexin V as previously described (22, 48). […] was determined by staining with propidium iodine and FACS analyses (49).

[1] = tested on: LS8817, LS141 and LS0082 cells; assay: SA-β-gal and SAHF (HP1γ) senescence staining, responder lines; format: cell-based, human
From the text: (§1) Mean percentage standard deviation). […] (A) Senescence-associated β-galactosidase and (B) HP1γ staining for senescence associated heterochromatic foci (SAHF) formation was quantitated for three or more independent experiments for each cell line. […] Representative phase contrast micrographs of cells stained for SA-β-gal or immunofluorescence staining for HP1γ in two of the cell lines before (ctrl) and after (PD) drug treatment are shown in the insets of FIGS. 2A and 2B, respectively. (C) BrdU incorporation. […] Error bars represent the standard deviation of the mean calculated from three independent trials. […] Cell number was quantitated by DAPI staining and β-galactosidase staining quantitated as a proportion of total cells. Senescence associated heterochromatic foci were quantitated after cells were fixed with 4% paraformaldehyde, permeabilized with 0.1% Triton, blocked with 2% FBS, and stained with antibodies against HP1γ (1:5000 dilution, 2MOD-1G6 Millipore). Senescent cells were identified by immunofluorescence after treatment of slides with anti-mouse secondary antibodies and quantitation of focal SAHF as a percent of total cells (Leica Upright Confocal SP5 confocal microscope). […] Cell area was measured by with Metamorph software to calculate relative area per cell.

[2] = tested on: LS8107, LS7785-10, LS7785-1 and LS8313 cells; assay: SA-β-gal and SAHF (HP1γ) senescence staining, non-responder lines; format: cell-based, human; settings: LS7785-1, LS7785-10, LS8107 and LS8313; even at ten-fold increased concentration
From the text: as §1

[3] = tested on: MDM2 in LS8817 and LS0082 cells; assay: MDM2 levels by immunoblot, responder cells; format: cell-based, human; settings: two days
Procedure: (A) Immunoblot. […] Tubulin was a loading control. (B) Immunoblot.
(§2) Antibodies against CDK4 (3F121), MDM2 (N-20 and SMP14), total RB (IF8), Cyclin A (H432), p16 (C20), p53 (DO-1 and Bp53-12), tubulin (C20) and FLAG (M2) were obtained from Santa Cruz Biotechnology, phospho-Rb 780 (#9307) from Cell Signalling, and ARF (3642) from Abeam, HAUSP (A300-033A) from Bethyl Laboratories. Treated cells were lysed with buffer composed of 50 mM Tris-HCl, pH7.4, 250 mM NaCl, 5 mM EDTA, 0.5% NP40, 2 mM PMSF, and supplemented with protease inhibitors. Eighty micrograms of protein were resolved by SDS-PAGE and transferred to PVDF membranes. Membranes were incubated overnight with antibodies (1:1000). […] Pre-treatment biopsies were collected within two weeks of the first dose and post-treatment biopsies collected after at last three weeks of treatment. Extracts were prepared in 50 mM Tris-HCl, pH7.4, 150 mM NaCl, 1 mM EDTA, 1% NP40, 0.25% sodium deoxycholate and supplemented with mini-protease inhibitor cocktail (Roche). Tumor response was assessed by reference radiologist by CT scan every six weeks for 36 weeks, and every 12 weeks thereafter.

[4] = tested on: Flag-tagged MDM2 in LS8817 cells; assay: turnover of FLAG-tagged MDM2 and C464A mutant; format: cell-based, human
From the text: FIG. 21A-B. Turnover of MDM2 is regulated post-translationally. […] Tubulin was used as a loading control. This experiment was repeated twice with similar results. (B) LS8817 cells transduced with either a FLAG-tagged MDM2 or a FLAG-tagged C464A mutant of MDM2 were selected and the turnover of the FLAG-tagged protein measured by immunoblot after protein synthesis was blocked with cycloheximide for the indicated amount of time. A representative immunoblot is shown and the mean and standard deviation was compiled from two independent experiments.

[5] = tested on: Glioma (U87MG, U251, SNB19, DBTRG-05MG) and breast cancer (MDA453, T47D, ZR-75-1, and MCF7) cells; assay: SA-β-gal senescence in glioma and breast cancer cell lines; format: cell-based; settings: eight cell lines, some p53 and/or INK4 mutant
From the text: FIG. 19A-C. Senescence associated with the downregulation of MDM2 is p53 and INK4 independent. […] This experiment was repeated three times with similar results in both LS8817 and LS141. […] The p53 mutational status of these cell lines (WT, wild type; R273H and L194F, missense mutations; if-DEL, in-frame deletion of 30 nucleotides at amino acid 368) were obtained from the p53 mutation database and the RIKEN bioresource databank and is consistent with the detection of p21 by immunoblot. (C) SNB19 cells, a p53 mutant and INK4A deficient cell, was transduced with the mutants described in panel A and their effect on senescence determined.
Cells were plated at a concentration of 25,000 per well in a 4-well chamber slides (Lab-Tek) and treated for seven days with drug and stained for senescence-associated β-galactosidase (Cell Signaling kit #9860). Cell number was quantitated by DAPI staining and β-galactosidase staining quantitated as a proportion of total cells.

[6] = tested on: p27 in responder and non-responder cells; assay: p27 levels by immunoblot; format: cell-based, human
From the text: FIG. 22. Additional immunoblot analysis in responder and non-responder cells. […] Actin is a loading control. This experiment was repeated at least three times for each cell line.

[7] = tested on: MDM2 in WD/DDLS tumor biopsies; assay: MDM2 in pre- and post-treatment patient biopsies by immunoblot; format: in vivo, human
Procedure: FIG. 7. […] GAPDH serves as a loading control.
as §2, with “Extracts were prepared in 50 mM Tris-HCl, pH7.4, 150 mM NaCl, 1 mM EDTA, 1% NP40, 0.25% sodium deoxycholate and supplemented with mini-protease inhibitor cocktail (Roche).” left out
Extracts were prepared in 50 mM Tris-HCl, pH7.4, 150 mM NaCl, 1 mM EDTA, 1% NP40, 0.25% sodium deoxycholate and supplemented with mini-protease inhibitor cocktail (Roche). Tumor response was assessed by reference radiologist by CT scan every six weeks for 36 weeks, and every 12 weeks thereafter.

Question: Which “annexin V staining, a marker of apoptosis” value (WD/DDLS cell lines) does the source give for `CC(=O)c1c(C)c2cnc(Nc3ccc(N4CCNCC4)cn3)nc2n(C2CCCC2)c1=O` [PD0332991] here?
Answer: The value was “did not induce a significant change”.

Question: And the “number of SA-β-gal or SAHF positive cells” value ([1]; seven days after exposure)?
Answer: The value was “significant increase”.

Question: What about the “concentration giving a significant increase in SA-β-gal or SAHF positive cells” value ([1]; seven days, concentrations as low as) of the same compound?
Answer: Its value is ≤ 100 nM.

Question: What about the “number of SA-β-gal or SAHF positive cells” value [2] of the same compound?
Answer: The value was “no increase”.

Question: What about the MDM2 reduction [3] of the same compound?
Answer: The MDM2 reduction was “approximately three-fold”.

Question: What about the “stability of wild type Flag-tagged MDM2” value [4] of the same compound?
Answer: The value was “still turned over”.

Question: What about the “stability of the C464A mutant of MDM2” value ([4]; Flag-tagged E3 ligase-deficient mutant) of the same compound?
Answer: The value was “did not affect”.

Question: And the “senescence as measured by accumulation of SA-β-gal” value [5]?
Answer: Its value is “All of the cell lines underwent senescence”.

Question: And the p27 levels [6]?
Answer: Its p27 levels is “unchanged”.

Question: And the “MDM2 levels in post- versus pre-treatment biopsies” value ([7]; patients 1, 4, 7, and 8)?
Answer: Its value is “reduced”.

Question: And the “MDM2 levels in post- versus pre-treatment biopsies” value ([7]; patients 2, 3, and 9)?
Answer: The value was “unaffected”.
